Like-named read-outs stand apart in the source and are kept apart here.
What was measured:
[1] = tested on: JJN-3 cells; assay: Antiproliferative activity on JJN-3 (NIK translocated) multiple myeloma cells (CellTiter-Glo); assay type: cell-based, human; conditions: JJN-3 (NIK translocated) cells, 96 hr, averaged values, read-out: JJN-3 Proliferation inhibition (IC50 (nM))
How it was run: (§1)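 Suspension myeloma cells in RPMI 1640 with 10% FCS, plated at 15000 (JJN-3) or 20000 (KMS12-BM) cells/well, were treated 96 hr with 9-point 1:3 compound dilutions at 0.3% DMSO. CellTiter-Glo luminescence, minus a time-zero blank, was expressed as % of untreated control growth.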

[2] = tested on: KMS12-BM cells; assay: Antiproliferative activity on KMS12-BM (NIK WT) multiple myeloma cells (CellTiter-Glo); assay type: cell-based, human; conditions: KMS12-BM (NIK WT) cells, 96 hr, averaged values, read-out: KMS-12 Proliferation inhibition (IC50 (nM))
How it was run: as §1

[3] = target: recombinant human NF-kappaB-inducing kinase (NIK/MAP3K14) (Homo sapiens (Human), UniProt Q99558); assay: Inhibition of auto-phosphorylation of recombinant human NIK/MAP3K14 activity (AlphaScreen); assay type: biochemical; conditions: averaged values over all measurements on all batches
How it was run: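 GST-tagged NIK at 0.2 nM autophosphorylated for 1 h at 25° C with 25 microM ATP in Tris pH 7.5, MgCl2, 1% DMSO. Phospho-IKK Ser176/180 antibody with AlphaScreen beads detected product. IC50 came from sigmoidal fits of blank-corrected % inhibition.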

[4] = tested on: P-IKKα levels in L363 cells; assay: Effect of compounds on P-IKKα levels in L363 (NIK translocated multiple myeloma) cells; assay type: cell-based, human; conditions: averaged values, read-out: Inhibition of pIKKα_L-363 (IC50 (nM))
Protocol: Effect of compounds on P-IKKα levels in L363 (NIK translocated multiple myeloma) cells
All compounds tested were dissolved in DMSO and further dilutions were made in culture medium. Final DMSO concentration was 1% (v/v) in cell assays. The human L363 cells (ATCC) were cultured in RPMI 1640 medium supplemented with GlutaMax and 10% fetal calf serum (PAA). Cells were routinely maintained at densities of 0.2×10^6 cells per ml-1×10^6 cells per ml at 37° C. in a humidified 5% CO2 atmosphere. Cells were passaged twice a week splitting back to obtain the low density. Cells were seeded in 96 well plates (Nunc 167008) at 2×10^6 per ml media in a volume of 75 μl per well plus 25 μl 1 μg/ml recombinant human B-cell activating factor (BAFF/BLyS/TNFSF13B). Seeded cells were incubated at 37° C. in a humidified 5% CO2 atmosphere for 24 hr. Drugs and/or solvents were added (20 μl) to a final volume of 120 μl. Following 2 hr treatment plates were removed from the incubator and cell lysis was achieved by the addition of 30 μl 5× lysis buffer followed by shaking on a plate shaker at 4° C. for 10 min. At the end of this incubation lysed cells were centrifuged at 800×g for 20 min at 4° C. and the lysate was assessed for P-IKKα levels by sandwich immuno-assay carried out in anti-rabbit antibody coated Mesoscale plates. Within an experiment, the results for each treatment were the mean of 2 replicate wells. For initial screening purposes, compounds were tested using an 8 point dilution curve (serial 1:3 dilutions). For each experiment, controls (containing MG132 and BAFF but no test drug) and a blank incubation (containing MG132 and BAFF and 10 μM ADS125117, a test concentration known to give full inhibition) were run in parallel. The blank incubation value was subtracted from all control and sample values. To determine the IC50 a sigmoidal curve was fitted to the plot of % inhibition of control P-IKKα levels versus Log10 compound concentration.

[5] = Homo sapiens, L-363, L363 cells

Chain of recombinant human NF-kappaB-inducing kinase (NIK/MAP3K14) (Q99558 whole entry): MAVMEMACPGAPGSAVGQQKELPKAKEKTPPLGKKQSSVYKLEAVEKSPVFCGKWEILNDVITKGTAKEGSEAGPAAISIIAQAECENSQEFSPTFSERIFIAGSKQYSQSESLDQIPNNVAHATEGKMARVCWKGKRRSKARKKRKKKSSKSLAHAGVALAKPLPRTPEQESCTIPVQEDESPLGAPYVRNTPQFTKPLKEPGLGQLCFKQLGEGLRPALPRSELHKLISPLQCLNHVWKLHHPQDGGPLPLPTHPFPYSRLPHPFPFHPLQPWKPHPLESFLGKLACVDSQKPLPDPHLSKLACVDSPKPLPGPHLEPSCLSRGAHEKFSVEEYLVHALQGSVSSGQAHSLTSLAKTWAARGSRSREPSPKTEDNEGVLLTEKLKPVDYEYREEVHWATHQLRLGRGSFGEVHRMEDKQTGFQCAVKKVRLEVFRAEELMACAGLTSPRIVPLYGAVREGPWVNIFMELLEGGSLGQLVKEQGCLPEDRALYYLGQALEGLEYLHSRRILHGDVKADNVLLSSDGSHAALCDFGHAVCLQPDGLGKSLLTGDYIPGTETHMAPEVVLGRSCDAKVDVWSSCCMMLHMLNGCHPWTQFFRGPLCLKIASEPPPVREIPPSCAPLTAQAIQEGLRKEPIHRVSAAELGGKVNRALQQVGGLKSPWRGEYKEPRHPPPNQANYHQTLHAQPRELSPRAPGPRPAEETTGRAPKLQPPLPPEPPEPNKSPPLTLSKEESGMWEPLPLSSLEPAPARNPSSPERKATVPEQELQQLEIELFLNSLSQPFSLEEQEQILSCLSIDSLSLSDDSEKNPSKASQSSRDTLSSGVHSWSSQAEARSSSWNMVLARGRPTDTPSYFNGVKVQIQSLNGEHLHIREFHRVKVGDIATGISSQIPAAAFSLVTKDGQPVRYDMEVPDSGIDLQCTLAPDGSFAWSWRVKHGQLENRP

Compound | IC50 ([1]; Homo sapiens, JJN-3, 96 h) [nM] | IC50 ([2]; Homo sapiens, KMS-12-BM, 96 h) [nM] | IC50 [3] [nM] | IC50 [4, 5] [nM] | IC50 [1] [nM] | IC50 [2] [nM] | IC50 ([4]; L363 cells) [nM]
Cc1c(Nc2nccc(-c3cc(C#N)c4c(c3)[C@@](C)(CO)CN4)n2)cnn1C1CCN(C)CC1 [Compound 123] | 195 | ~447 | 1.6 | 20 |  |  | 
CN1CCC(Cn2nc(Cl)cc2Nc2nccc(-c3cc(C#N)c4c(c3)[C@@](C)(CO)CN4)n2)CC1 [Compound 124] | 49 | 832 | 6.8 | 219 |  |  | 
CC(C)CCc1c(Nc2nccc(-c3cc(C#N)c4c(c3)[C@@](C)(CO)CN4)n2)cnn1CCN1CCOCC1 [Compound 125] | 120 | > 10000 | 3.5 | 1 |  |  | 
C[C@]1(CO)CNc2c(C#N)cc(-c3ccnc(Nc4cc(Cl)nn4C[C@@H]4COCCO4)n3)cc21 [Compound 126] | 468 | > 10000 | 4.8 | 170 |  |  | 
CC(C)CCc1c(Nc2nccc(-c3cc(C#N)c4c(c3)[C@@](C)(CO)CN4)n2)cnn1CCO [Compound 127] | 617 | > 10000 | 2 | 25 |  |  | 
C[C@]1(CO)CNc2c(C#N)cc(-c3ccnc(Nc4cc(C#N)nn4CCC4CC4)n3)cc21 [Compound 128] | 417 | 1900 | 3.7 | ~41 |  |  | 
C[C@]1(CO)CNc2c(C#N)cc(-c3ccnc(Nc4cc(Cl)nn4C[C@@H]4CCOC4)n3)cc21 [Compound 129] | 251 | 2040 | 3.8 | 28 |  |  | 
CC(C)CCc1nn(Cc2cncn2C)cc1Nc1nccc(-c2cc(C#N)c3c(c2)[C@@](C)(CO)CN3)n1 [Compound 130] | 1000 | > 10000 | 6 | 115 |  |  | 
Cc1cc(Nc2nccc(-c3cc(C#N)c4c(c3)[C@@](C)(CO)CN4)n2)n(CC2(F)CCN(C)CC2)n1 [Compound 131] | 224 | > 10000 | 5.9 | 166 |  |  | 
Cc1nn(CC(F)F)cc1Nc1nccc(-c2cc(C#N)c3c(c2)[C@@](C)(CO)CN3)n1 [Compound 132] | 58 | ~1860 | 1 | 2 |  |  | 
C[C@]1(CO)CNc2c(C#N)cc(-c3ccnc(Nc4cc(Cl)nn4C[C@H]4COCCO4)n3)cc21 [Compound 133] | 389 | 6610 | 6.9 | 65 |  |  | 
C[C@]1(CO)CNc2c(C#N)cc(-c3ccnc(Nc4cc(Cl)nn4CC4CCN(CCF)CC4)n3)cc21 [Compound 134] | 47 | 2240 | 4.8 | 107 |  |  | 
Cc1cc(Nc2nccc(-c3cc(C#N)c4c(c3)[C@@](C)(CO)CN4)n2)n(CC(=O)O)n1 [Compound 135] | > 10000 | > 10000 | 5.1 | 229 |  |  | 
Cc1cc(Nc2nccc(-c3cc(C#N)c4c(c3)C(C)(CO)CN4)n2)n(CC2CCN(CC(=O)N(C)C)CC2)n1 (stereo not shown) [Compound 136] | 724 | > 10000 | 7.2 | 562 |  |  | 
Cc1cc(Nc2nccc(-c3cc(C#N)c4c(c3)[C@@](C)(CO)CN4)n2)n(CC2CCN(CC(F)(F)F)CC2)n1 [Compound 137] | 676 | > 10000 | 6.3 | 36 |  |  | 
COCCN1CCC(Cn2nc(Cl)cc2Nc2nccc(-c3cc(C#N)c4c(c3)[C@@](C)(CO)CN4)n2)CC1 [Compound 138] | 44 | 2570 | 8.3 | 178 |  |  | 
Cc1cc(Nc2nccc(-c3cc(C#N)c4c(c3)[C@@](C)(CO)CN4)n2)n(C[C@@H]2CN(C)CCO2)n1 [Compound 139] | 1120 | > 10000 | 13 | 182 |  |  | 

Compound | IC50 ([1]; Homo sapiens, JJN-3, 96 h) [nM] | IC50 ([2]; Homo sapiens, KMS-12-BM, 96 h) [nM] | IC50 [3] [nM] | IC50 [4, 5] [nM] | IC50 [1] [nM] | IC50 [2] [nM] | IC50 ([4]; L363 cells) [nM]
Cc1nc(Nc2nccc(-c3cc(C#N)c4c(c3)[C@@](C)(CO)CN4)n2)sc1C(=O)N(C)C [Compound 149] | 50 | ~741 | 0.7 | 8 |  |  | 
Cn1cc(Nc2nccc(-c3cc(C#N)c4c(c3)[C@@](C)(CO)CN4)n2)c(CN2CCOCC2)n1 [Compound 150] | 2400 | > 10000 | 15 | 170 |  |  | 
CC(C)Cn1nc(CO)cc1Nc1nccc(-c2cc(C#N)c3c(c2)[C@@](C)(CO)CN3)n1 [Compound 151] | 871 | 7080 | 2 | 13 |  |  | 
C[C@]1(CO)CNc2c(C#N)cc(-c3ccnc(Nc4cc(Cl)nn4CC4CCN(CC(F)(F)F)CC4)n3)cc21 [Compound 152] | 646 | 7940 | 17 | 135 |  |  | 
COCCn1nc(CO)cc1Nc1nccc(-c2cc(C#N)c3c(c2)[C@@](C)(CO)CN3)n1 [Compound 153] | 1440 | > 10000 | 4.3 | 28 |  |  | 
Cc1cc(Nc2nccc(-c3cc(C#N)c4c(c3)[C@@](C)(CO)CN4)n2)n(CCC2(C)COC2)n1 [Compound 154] | 646 | 2290 | 4.9 | 15 |  |  | 
COCCN1CCC(Cn2nc(C)cc2Nc2nccc(-c3cc(C#N)c4c(c3)[C@@](C)(CO)CN4)n2)CC1 [Compound 155] | 59 | > 10000 | 9.3 | 126 |  |  | 
CC(C)n1nc(CO)cc1Nc1nccc(-c2cc(C#N)c3c(c2)[C@@](C)(CO)CN3)n1 [Compound 156] | 1260 | ~7240 | 3.6 | 14 |  |  | 
C[C@@]1(CO)CNc2c(C#N)cc(-c3ccnc(Nc4cnn(CCC5CC5)c4CN4CCOCC4)n3)cc21 [Compound 159] |  |  | 10 |  | 1510 | > 10000 | 91
CN1CCC(F)(Cn2nc(Cl)cc2Nc2nccc(-c3cc(C#N)c4c(c3)[C@@](C)(CO)CN4)n2)CC1 [Compound 160] | 69 | ~5010 | 3.6 | 34 |  |  | 
CN1CC[C@@H](Cn2nc(Cl)cc2Nc2nccc(-c3cc(C#N)c4c(c3)[C@@](C)(CO)CN4)n2)C1 [Compound 161] | 204 | 2240 | 4.3 | 83 |  |  | 
CC(C)CCc1c(Nc2nccc(-c3cc(C#N)c4c(c3)[C@@](C)(CO)CN4)n2)cnn1CC1CCN(CC(F)(F)F)CC1 [Compound 163] | 309 | > 10000 | 12 | 5 |  |  | 
CC(C)n1nc(Nc2nccc(-c3cc(C#N)c4c(c3)[C@@](C)(CO)CN4)n2)cc1C(=O)NC1CC1 [Compound 164] | 132 | 4680 | 2.6 | < 0.66 |  |  | 
Cc1cc(Nc2nccc(-c3cc(C#N)c4c(c3)[C@@](C)(CO)CN4)n2)n(CCN2CCOCC2)n1 [Compound 165] | 1620 | > 10000 | 8.5 | 48 |  |  | 
CN1CCN(Cc2nn(C)cc2Nc2nccc(-c3cc(C#N)c4c(c3)[C@@](C)(CO)CN4)n2)CC1 [Compound 166] | 37 | > 10000 | 13 | 151 |  |  | 
CN1CCN(Cc2c(Nc3nccc(-c4cc(C#N)c5c(c4)[C@@](C)(CO)CN5)n3)cnn2CCC2CC2)CC1 [Compound 167] | 83 | > 10000 | 13 | 62 |  |  | 
CC(C)CCc1c(Nc2nccc(-c3cc(C#N)c4c(c3)[C@@](C)(CO)CN4)n2)cnn1CC1CCN(CC(F)F)CC1 [Compound 169] | 389 | ~7080 | 3.9 | 16 |  |  | 
